Key:
[1] = Regular water solubility test; assay type: physicochemical; settings: thermodynamic from solid, room temperature
Protocol: Water solubility tests for the salts as described herein were performed as follows unless otherwise stated. 0.05 g of each salt was weighed in a flask and the mass of flask+salt (m-vs) was recorded. Water was slowly added dropwise into the flask with salt until full dissolution was achieved as observed by the naked eye. The mass of flask+salt+solvent (m-sys) was recorded.
(s) stands for the weight of the salt measured in kg,
(m-sys) stands for the mass of the flask+salt+solvent measured in kg, and
(m-vs) stands for the mass of the flask+salt measured in kg.

[2] = Flask method water solubility test; assay type: physicochemical; settings: saturated solution equilibrated at least 24 hours, room temperature
Protocol: In some cases, a further water solubility test (Flask method water solubility test) was performed as follows. An excess of salt was added to water. The mixture was equilibrated (shaking) for at least 24 hours thereby providing a saturated salt solution. Then the saturated solution was clear-filtered and transferred into a clean pre-weighed flask (mv). The mass of flask+saturated solution (mvs) was recorded. The solvent was evaporated under reduced pressure until constant mass. Flask containing dried residue was weighed (mvdr). The solubility expressed as “grams of solute/kg of solvent”, i.e. “grams of salt/kg of solvent”, was calculated according to the equation: […]
(mvdr-mv) is the weight difference in kg between (i) the mass of the flask containing dried residue after evaporation of the solvent and (ii) the mass of the flask, and
(mvs-mvdr) is the weight difference in kg between (i) the mass of the flask including the saturated salt solution and (ii) the mass of the flask containing the dried residue.

[3] = Crystalline phase at tested relative humidity; assay type: physicochemical; settings: any tested relative humidity
Hygroscopicity test = assay type: physicochemical; settings: 30° C., one week; for hygroscopicity (in words): any tested relative humidity
Protocol: Hygroscopicity tests of the salts were performed by keeping exact weight samples of the different salts at varied humidity at 30° C. After one week, the samples were weighed again and based on the original weight the percentage weight difference was calculated.
In the followed hygroscopicity test, the change in weight was measured after each acidic salt of (+)-3-(2,3-difluorophenyl)-3-methoxypyrrolidine was exposed for a week under the condition of 30° C. and different relative humidities (RH) 0 to 97%.

human sigma 1 receptor = target: T1, human sigma 1 receptor (Homo sapiens, UniProt Q99720); experiment: In vitro competition binding assay, human sigma 1 receptor; settings: 1.0 E-5 M test compound, 15 nM [3H] pentazocine, duplicate, mean value; read-out: Percent inhibition of the control radioligand specific binding
T1 construct: Cell membrane homogenates (150 μg protein) were incubated for 120 min at 37° C. with 15 nM; endogenous in cells; inferred to be Jurkat human T lymphocytes from the cited method (Ganapathy et al. 1999)
T1 sequence (Q99720 whole entry): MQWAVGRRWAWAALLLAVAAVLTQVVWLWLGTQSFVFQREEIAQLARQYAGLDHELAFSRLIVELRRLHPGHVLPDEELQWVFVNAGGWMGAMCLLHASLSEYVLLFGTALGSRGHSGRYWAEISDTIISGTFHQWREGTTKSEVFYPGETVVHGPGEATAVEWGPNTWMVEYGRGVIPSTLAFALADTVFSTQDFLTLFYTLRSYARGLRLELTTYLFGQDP
Protocol: The binding affinity of the fumaric acid salt of (+)-3-(2,3-difluorophenyl)-3-methoxypyrrolidine at the human sigma 1 receptor was determined by a competition binding assay similar to what is described in […], M. E., PRASAD, P. D., HUANG, W., SETH, P., LEIBACH, F. H. and […], V. (1999), Molecular and ligand-binding characterization of the σ-receptor in the Jurkat human T lymphocyte cell line, J. Pharmacol. Exp. Ther., 289: 251.
Cell membrane homogenates (150 μg protein) were incubated for 120 min at 37° C. with 15 nM [^3H] pentazocine in the absence or presence of the test compound in a buffer containing 50 mM Tris-HCl (pH 8).
Nonspecific binding was determined in the presence of 10 μM haloperidol.
Following incubation, the samples were filtered under vacuum through glass fiber filters (GF/B, Packard) presoaked with 0.3% PEI and rinsed several times with ice-cold 50 mM Tris-HCl using a 96-sample cell harvester (Unifilter, Packard). The filters were dried then counted for radioactivity in a scintillation counter (Topcount, Packard) using a scintillation cocktail (Microscint 0, Packard).
The results were expressed as a percent inhibition of the control radioligand specific binding.
The standard reference compound was haloperidol, which was tested in each experiment at several concentrations to obtain a competition curve from which its IC50 value was calculated. […]

solubility [1]	solubility ([2]; water, thermodynamic from solid)	hygroscopicity (in words) (Hygroscopicity test; listed as salt of Formula IIb)	inhibition at 10 µM (human sigma 1 receptor)	SMILES	change of crystalline phase with humidity (in words) [3]	hygroscopicity (in words) (Hygroscopicity test; listed as Example 11)	Weight difference (%) (Hygroscopicity test; relative humidity 0%)	Weight difference (%) (Hygroscopicity test; relative humidity 6%)	Weight difference (%) (Hygroscopicity test; relative humidity 11%)	Weight difference (%) (Hygroscopicity test; relative humidity 22%)	Weight difference (%) (Hygroscopicity test; relative humidity 32%)	Weight difference (%) (Hygroscopicity test; relative humidity 43%)	Weight difference (%) (Hygroscopicity test; relative humidity 56%)	Weight difference (%) (Hygroscopicity test; relative humidity 73%)	Weight difference (%) (Hygroscopicity test; relative humidity 84%)	Weight difference (%) (Hygroscopicity test; relative humidity 97%)	Solubility in water (Flask method water solubility test) [2]
34 mg/mL	74.1 mg/mL	not being hygroscopic	79.1%	CO[C@]1(c2cccc(F)c2F)CCNC1.O=C(O)/C=C/C(=O)O [Example 7, fumarate Salt of (+)-3-(2,3-difluorophenyl)-3-methoxypyrrolidine]	not changing in its crystalline phase at any tested relative humidity	does not adsorb or desorb water at any humidity	−0.07%	−0.14%	0.11%	0.15%	0.13%	0.07%	0.19%	0.06%	0.00%	0.16%	–
–	–	–	–	COC1(c2cccc(F)c2F)CCNC1.Cl (stereo not drawn) [Example 8, Hydrochloric Acid Salt of (+)-3-(2,3-difluorophenyl)-3-methoxypyrrolidine]	–	–	0.00%	−0.07%	−0.06%	−0.15%	0.00%	−0.13%	−0.14%	−0.13%	25.77%	99.12%	–
–	–	–	–	COC1(c2cccc(F)c2F)CCNC1.O=C(O)C(O)C(O)C(=O)O [Example 9, L-Tartaric acid salt of (+)-3-(2,3-difluorophenyl)-3-methoxypyrrolidine]	–	–	−2.36%	−0.67%	−0.14%	2.40%	2.16%	1.71%	1.99%	1.90%	2.13%	2.39%	–
–	–	–	–	COC1(c2cccc(F)c2F)CCNC1.O=C(O)C[C@H](O)C(=O)O [Example 13, L-Malic Acid Salt of (+)-3-(2,3-difluorophenyl)-3-methoxypyrrolidine]	–	–	−0.07%	0.00%	−0.13%	−0.08%	0.00%	−0.22%	−0.06%	0.07%	0.40%	34.37%	–
–	–	–	–	COC1(c2cccc(F)c2F)CCNC1.O=C(O)C(=O)O (stereo not drawn) [Reference Example 19, oxalic Acid Salt of (+)-3-(2,3-difluorophenyl)-3-methoxypyrrolidine, reference compound]	–	–	0.00%	0.00%	−0.21%	0.00%	0.11%	−0.05%	0.00%	−0.05%	−0.15%	0.26%	28 mg/mL

Source: US11078158B2, “(+)-3-(2,3-difluorophenyl)-3-methoxypyrrolidine or pharmaceutically acceptable salts thereof, a process for preparation thereof and uses thereof” (INTEGRATIVE RESEARCH LABORATORIES SWEDEN AB, priority 2017, dated 2021)
